Test results as given in article PMC11620503 (Antimicrobial Agents and Chemotherapy, 2024).
Values after ≈ are worked out from the molar mass of the structure shown. Like-named read-outs stand apart in the source and are kept apart here.

Experiments:
[1] = tested on: 207 Enterobacterales including carbapenem-resistant isolates; experiment: MIC, broth microdilution; type: cell-based
[2] = tested on: Carbapenemase-producing A. baumannii (4); experiment: MIC and MBC testing; type: cell-based, Acinetobacter baumannii; conditions: 4 carbapenemase-producing A. baumannii; fixed BLI concentration (μg/mL) in label; text: MBC/MIC ratios
[3] = tested on: 55 isolates of A. baumannii; experiment: MIC, broth microdilution; type: cell-based, Acinetobacter baumannii; conditions: Acinetobacter baumannii (55)
[4] = tested on: MEM-nonsusceptible Enterobacterales with metallo-carbapenemases; experiment: MIC, broth microdilution; type: cell-based; conditions: MEM-nonsusceptible Enterobacterales with metallo-carbapenemases (55), cefiderocol 54 isolates
[5] = tested on: Metallo-carbapenemase-producing Enterobacterales (11); experiment: MIC and MBC testing; type: cell-based; conditions: 11 metallo-carbapenemase-producing Enterobacterales; fixed BLI concentration (μg/mL) in label
[6] = tested on: MEM-nonsusceptible Enterobacterales; experiment: MIC, broth microdilution; type: cell-based; conditions: MEM-nonsusceptible Enterobacterales (127), cefiderocol 126 isolates
[7] = tested on: Serine-carbapenemase-producing Enterobacterales (6); experiment: MIC and MBC testing; type: cell-based; conditions: 6 serine-carbapenemase-producing Enterobacterales; fixed BLI concentration (μg/mL) in label
[8] = tested on: MEM-, imipenem/relebactam-, and ceftolozane/tazobactam-nonsusceptible P. aeruginosa; experiment: MIC, broth microdilution; type: cell-based, Pseudomonas aeruginosa; conditions: for CLSI MIC interpretation I (intermediate) / CLSI MIC interpretation R (resistant) / CLSI MIC interpretation S (susceptible): CLSI breakpoints, marked c: breakpoints for β-lactam alone; for MIC50 / MIC90: Pseudomonas aeruginosa, fixed concentration (μg/mL) in label; for MIC50: read-out: MIC50; for MIC90: read-out: MIC90
[9] = tested on: serine-carbapenemase-producing isolates (Enterobacterales); experiment: MIC, broth microdilution; type: cell-based; conditions: Enterobacterales with serine-carbapenemases (80)
[10] = tested on: 96 P. aeruginosa; experiment: MIC, broth microdilution; type: cell-based, Pseudomonas aeruginosa; conditions: Pseudomonas aeruginosa (96)
[11] = tested on: MEM-nonsusceptible Enterobacterales with serine-carbapenemases; experiment: MIC, broth microdilution; type: cell-based; conditions: MEM-nonsusceptible Enterobacterales with serine-carbapenemases (58)
[12] = tested on: MBL-producing isolates (Enterobacterales); experiment: MIC, broth microdilution; type: cell-based; conditions: Enterobacterales with metallo-carbapenemases (74), cefiderocol 73 isolates
[13] = All Enterobacterales (207), cefiderocol 205 isolates, CLSI breakpoints, marked c: breakpoints for β-lactam alone, tigecycline: FDA breakpoints
[14] = CLSI breakpoints, marked c: breakpoints for β-lactam alone
[15] = fixed concentration (μg/mL) in label, read-out: MIC50
[16] = fixed concentration (μg/mL) in label, read-out: MIC90
[17] = CLSI breakpoints, marked c: breakpoints for β-lactam alone, tigecycline: FDA breakpoints
[18] = Ceftolozane/tazobactam-nonsusceptible Pseudomonas aeruginosa (45)
[19] = Imipenem/relebactam-nonsusceptible Pseudomonas aeruginosa (43)
[20] = MEM-nonsusceptible Pseudomonas aeruginosa (76)

CC(C)(O/N=C(\C(=O)N[C@@H]1C(=O)N2C(C(=O)[O-])=C(C[n+]3ccccc3)CS[C@H]12)c1csc(N)n1)C(=O)O [CAZ, ceftazidime]
CLSI MIC interpretation I (intermediate) [1, 13]: 2.4%
CLSI MIC interpretation R (resistant) [1, 13]: 82.1%
CLSI MIC interpretation S (susceptible) [1, 13]: 15.5%
MIC50 ([1]; read-out: MIC50): > 32 µg/mL
MIC90 ([1]; read-out: MIC90): > 32 µg/mL
MBC/MIC ratio range [2]: 1–2
CLSI MIC interpretation I (intermediate) [3, 14]: 1.8%
CLSI MIC interpretation R (resistant) [3, 14]: 94.5%
CLSI MIC interpretation S (susceptible) [3, 14]: 3.6%
MIC50 [3, 15]: > 32 µg/mL
MIC90 [3, 16]: > 32 µg/mL
CLSI MIC interpretation I (intermediate) [4, 17]: 0%
CLSI MIC interpretation R (resistant) [4, 17]: 98.2%
CLSI MIC interpretation S (susceptible) [4, 17]: 1.8%
MIC50 [4, 15]: > 32 µg/mL
MIC90 [4, 16]: > 32 µg/mL
MIC/MBC range [5]: ≥1
CLSI MIC interpretation I (intermediate) [6, 17]: 3.1%
CLSI MIC interpretation R (resistant) [6, 17]: 87.4%
CLSI MIC interpretation S (susceptible) [6, 17]: 9.4%
MIC50 [6, 15]: > 32 µg/mL
MIC90 [6, 16]: > 32 µg/mL
MIC/MBC range [7]: 1–256
CLSI MIC interpretation I (intermediate) [8, 18]: 4.4%
CLSI MIC interpretation R (resistant) [8, 18]: 93.3%
CLSI MIC interpretation S (susceptible) [8, 18]: 2.2%
CLSI MIC interpretation I (intermediate) [8, 19]: 7%
CLSI MIC interpretation R (resistant) [8, 19]: 83.7%
CLSI MIC interpretation S (susceptible) [8, 19]: 9.3%
CLSI MIC interpretation I (intermediate) [8, 20]: 6.6%
CLSI MIC interpretation R (resistant) [8, 20]: 68.4%
CLSI MIC interpretation S (susceptible) [8, 20]: 25%
MIC50 [8, 18]: > 32 µg/mL
MIC90 [8, 18]: > 32 µg/mL
MIC50 [8, 19]: > 32 µg/mL
MIC90 [8, 19]: > 32 µg/mL
MIC50 [8, 20]: 32 µg/mL (≈ 58.5 µM)
MIC90 [8, 20]: > 32 µg/mL
CLSI MIC interpretation I (intermediate) [9, 17]: 2.5%
CLSI MIC interpretation R (resistant) [9, 17]: 73.8%
CLSI MIC interpretation S (susceptible) [9, 17]: 23.8%
MIC50 [9, 15]: > 32 µg/mL
MIC90 [9, 16]: > 32 µg/mL
CLSI MIC interpretation I (intermediate) [10, 14]: 6.3%
CLSI MIC interpretation R (resistant) [10, 14]: 56.3%
CLSI MIC interpretation S (susceptible) [10, 14]: 37.5%
MIC50 [10, 15]: 32 µg/mL (≈ 58.5 µM)
MIC90 [10, 16]: > 32 µg/mL
CLSI MIC interpretation I (intermediate) [11, 17]: 1.7%
CLSI MIC interpretation R (resistant) [11, 17]: 82.8%
CLSI MIC interpretation S (susceptible) [11, 17]: 15.5%
MIC50 [11, 15]: > 32 µg/mL
MIC90 [11, 16]: > 32 µg/mL
CLSI MIC interpretation I (intermediate) [12, 17]: 0%
CLSI MIC interpretation R (resistant) [12, 17]: 98.6%
CLSI MIC interpretation S (susceptible) [12, 17]: 1.4%
MIC50 [12, 15]: > 32 µg/mL
MIC90 [12, 16]: > 32 µg/mL
